Read-outs that look alike come from different tables or passages of the source.
Columns and labels:
Serotonin 5-HT2A (human) = Serotonin 5-HT2A (human) (Homo sapiens (Human), UniProt P28223); assay: 5-HT2A receptor binding, [3H]-ketanserin competition in membrane fractions; settings: 1 nM [3H]-ketanserin, Cheng-Prusoff, N=1-3
5-HT2A = 5-HT2A (Homo sapiens (Human), UniProt P28223); assay: 5-HT2A Gq-mediated calcium flux functional assay; assay type: cell-based; settings: for 5-HT2A-Ca2+ FLUX Emax (% 5-HT): IA = Inactive, N=1-3
5-HT2B = 5-HT2B (Homo sapiens (Human), UniProt P41595); assay: 5-HT2B Gq-mediated calcium flux functional assay; assay type: cell-based; settings: for 5-HT2B-Ca2+ FLUX Emax (% 5-HT): IA = Inactive, N=1-3
5-HT2C = 5-HT2C (Homo sapiens (Human), UniProt P28335); assay: 5-HT2C Gq-mediated calcium flux functional assay; assay type: cell-based; settings: for 5-HT2C-Ca2+ FLUX Emax (% 5-HT): IA = Inactive, N=1-3
5-HT1A = 5-HT1A (Homo sapiens (Human), UniProt P08908); assay: 5-HT1A Gi/o-mediated cAMP inhibition, GloSensor assay; assay type: cell-based; settings: for 5-HT1A-cAMP Emax (% 5-HT): cAMP inhibition, 0.2 μM isoproterenol, IA = Inactive
C57BL/6J mice [1] = assay: Head-Twitch Response (HTR) in mice; assay type: in vivo; settings: for ED50: Mus musculus, ip, 0.5 h
Protocol: Male C57BL/6J mice (6-8 weeks old) were obtained from Jackson Laboratories (Bar Harbor, ME) and housed in a vivarium at the University of California San Diego, an AAALAC-approved animal facility that meets all federal and state requirements for care and treatment of laboratory animals. All animal experiments were carried out in accordance with NIH guidelines and were approved by the UCSD Institutional Animal Care and Use Committee. Mice were housed up to four per cage in a climate-controlled room on a reverse-light cycle (lights on at 1900 h, off at 0700 h). Animals were provided with ad libitum access to food and water, with the exception of during behavioral testing.
Testing was conducted between 1000 and 1800 h. Head movements were recorded using a head-mounted magnet and a magnetometer coil as described in Halberstadt et al. (Psychopharmacology, 2013, 227(4):727-739). For the head mounted magnet, mice were anesthetized, an incision was made in the scalp, and a neodymium magnet was attached to the dorsal surface of the cranium using dental cement. Following a 2-week recovery period, behavioral experiments were conducted in a well-lit room. At least 7 days occurred between sessions to avoid any carryover effects. Test substances (i.e., dimethyltryptamine (DMT), diethyltryptamine (DET), psilocybin, 6-fluoro-diethyltryptamine (6-F-DET), compounds 3-4, 6, 9, 12-13, 22, 33, 41, 69, 88, 166, and 178) were administered intraperitoneally (IP) at a volume of 5 mL/kg. Mice were treated with vehicle (saline) or 6 doses of the test compound and then placed in a glass cylinder surrounded by a magnetometer coil and tested for 30 min. Coil voltage was filtered (1 kHz lowpass), digitized (20 kHz sampling rate) and saved to disk using a Powerlab/8SP with LabChart v 7.3.2 (ADInstruments, Colorado Springs, CO).
The entire 30 min recordings were examined for head twitches. Established procedures based on artificial intelligence were used to identify head twitches in the recordings (Scientific Reports, 2020, 10(1):1-12). HTR counts were analyzed using one-way analyses of variance (ANOVA), followed by post hoc pairwise comparisons between individual groups and vehicle using Dunnett's multiple comparisons test. […] Median effective doses (ED50 values) and 95% confidence intervals (95% CI) were calculated using nonlinear regression (Prism 9.0.2, GraphPad Software, San Diego, CA) (Table 4 and FIGS. 1-3).

[2] = Metabolic stability in cryopreserved human hepatocytes; assay type: in vitro ADME; settings: cryopreserved hepatocytes, human hepatocytes, 1 μM, 37° C.; for hepatocyte CLint at 1 μM: read-out: Clint (μL/min/10^6 cells)
Protocol: (§1) The metabolic stability of a test compounds were assessed by monitoring disappearance of each compound in the presence of cryopreserved hepatocytes for up to 1 hour at 37° C. Following protein precipitation and centrifugation, the samples were analyzed by UPLC-MS-MS. Test Compound stock solutions (10 mM) were diluted 1 in 100 (2 μL 10 mM DMSO stock+198 μL 50:50 acetonitrile:water) to provide a 100 μM working solution. Following addition of test compounds to buffer, samples were pre-incubated at 37° C. for 5 minutes prior to initiating the incubation by the addition of test compounds to hepatocytes (these were held at 37° C. during pre-incubation period). Aliquots were sampled at 0, 5, 10, 20, 40 and 60 min and added to ice cold acetonitrile to terminate the reaction and precipitate proteins. All samples were mixed, centrifuged, and the supernatants were analyzed by UPLC-MS-MS using a Phenomenex Luna Omega […], C18 100 Å, 50×2.1 mm column. The final incubation conditions were as follows: hepatocytes 0.5×10^6 viable cells/mL, test compound 1 μM (n=1), acetonitrile concentration<0.01% (v/v) and DMSO concentration<0.01% (v/v). The intrinsic clearance (Clint) and half-life (T1/2) values are determined from the slope of the parent depletion curve. Positive control compounds with known metabolic clearance were included (diltiazem and naloxone).

human hepatocytes = assay: as above; assay type: in vitro ADME; settings: for metabolism by human hepatocytes: qualitative statement
Protocol: as §1

[3] = In vivo intravenous pharmacokinetic study in rats; set-up: species or system Sprague Dawley rats; settings: rat, mean; for Vd: iv, 1 mg/kg
Protocol: For the in vivo stability study described herein, 1 mg/kg of drug was administered by intravenous injection (i.e., dose volume 2 mL/kg, vehicle 5% DMSO:95% hydroxypropyl-beta-cyclodextrin (20% w/v in water)) to three male Sprague Dawley rats (˜300 g at time of dosing). Blood samples (˜240 μL) were collected via venipuncture at various time points (5, 15, 30, 60 120 240, 480 and 1,440 min) into K2EDTA-coated tubes. The samples were spun at 10,000 rpm (9,600×G) for 2 minutes. 100 μL of the resulting plasma was then collected and stored at −80° C. until analyzed by HPLC as described above.
Compound 3 administered intravenously (1 mg/kg); Vehicle: 5% DMSO, 95% 2-hydroxypropyl-β-cyclodextrin (HPBCD) (20% w/v in water); Plasma concentrations were quantified at multiple time points by UHPLC-MS-MS; N=3.

C57BL/6J mice [4] = settings: reported values of known 5HT2A agonists run under comparable conditions; dash = ED50 could not be estimated; cited from earlier work
[5] = read-out: HTR ED50 μmol/kg (95% CI)
[6] = read-out: HTR ED50 mg/kg (95% CI)
[7] = male, Sprague Dawley, plasma, intravenous 1 mg/kg, N=3
[8] = human hepatocytes, 1 μM, 37° C.

Sequence of 5-HT2C (P28335 whole entry, looked up): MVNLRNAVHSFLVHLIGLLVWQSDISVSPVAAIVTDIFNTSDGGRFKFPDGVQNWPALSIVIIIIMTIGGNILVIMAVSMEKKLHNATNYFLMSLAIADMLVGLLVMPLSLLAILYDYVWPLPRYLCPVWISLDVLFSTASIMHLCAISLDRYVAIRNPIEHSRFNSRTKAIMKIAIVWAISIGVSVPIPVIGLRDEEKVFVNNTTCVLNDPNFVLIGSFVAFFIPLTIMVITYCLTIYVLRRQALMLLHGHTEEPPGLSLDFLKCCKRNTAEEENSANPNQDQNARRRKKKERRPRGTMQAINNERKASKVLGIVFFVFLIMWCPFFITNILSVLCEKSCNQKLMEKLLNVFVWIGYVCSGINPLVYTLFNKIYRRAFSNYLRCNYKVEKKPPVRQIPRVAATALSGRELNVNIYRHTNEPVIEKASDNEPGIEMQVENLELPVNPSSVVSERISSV
Sequence of 5-HT2B (P41595 whole entry): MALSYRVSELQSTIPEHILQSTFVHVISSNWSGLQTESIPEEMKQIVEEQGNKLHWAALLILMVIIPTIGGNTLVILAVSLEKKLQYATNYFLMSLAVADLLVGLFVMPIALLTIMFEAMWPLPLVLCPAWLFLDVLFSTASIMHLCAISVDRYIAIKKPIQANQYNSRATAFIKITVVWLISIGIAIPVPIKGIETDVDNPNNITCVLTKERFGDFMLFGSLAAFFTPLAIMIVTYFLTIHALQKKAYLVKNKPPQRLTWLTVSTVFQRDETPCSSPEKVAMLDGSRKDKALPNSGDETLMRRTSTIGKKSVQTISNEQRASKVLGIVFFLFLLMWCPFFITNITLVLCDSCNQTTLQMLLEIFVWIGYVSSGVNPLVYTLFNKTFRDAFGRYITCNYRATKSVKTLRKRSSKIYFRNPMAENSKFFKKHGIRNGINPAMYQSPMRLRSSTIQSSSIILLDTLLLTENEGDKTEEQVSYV

Row | Structure (SMILES) | 5-HT2A pKi ± SEM (Serotonin 5-HT2A (human)) | EC50 (5-HT2A) [nM] | 5-HT2A-Ca2+ FLUX Emax (% 5-HT) (5-HT2A) | EC50 (5-HT2B) [nM] | 5-HT2B-Ca2+ FLUX Emax (% 5-HT) (5-HT2B) | EC50 (5-HT2C) [nM] | 5-HT2C-Ca2+ FLUX Emax (% 5-HT) (5-HT2C) | EC50 (5-HT1A) [nM] | 5-HT1A-cAMP Emax (% 5-HT) (5-HT1A) | ED50 (C57BL/6J mice [1]; [5]) [µmol/kg] | ED50 (C57BL/6J mice [1]; [6]) [mg/kg] | half-life at 1 μM [2] [min] | hepatocyte CLint at 1 μM [2] [µL/min/1e6 cells] | metabolism by human hepatocytes (human hepatocytes) | further results
1 | CCC(C)N(C)CCc1c[nH]c2ccc(F)cc12 (stereo not drawn) [Example 3, N-(2-(5-fluoro-1H-indol-3-yl)ethyl)-N-methylbutan-2-amine] | 6.23 ± 0.30 | 3.72 | 94.8 ± 0.8 | 9.12 | 37.5 ± 1.5 | 49 | 56.0 ± 0.9 | 3890 | 83.3 ± 5.7 | 6.28 | 1.79 | 11 | 132 | rapidly metabolized | AUC [3, 7]: 594 ng·h/mL; AUC(0-inf) [3, 7]: 597 ng·h/mL; C0 [3, 7]: 2490 ng/mL; clearance [3, 7]: 29.5 mL/min/kg; half-life ([3]; male, Sprague Dawley, plasma, intravenous 1 mg/kg, N=3, read-out: Half-Life (converted)): 65.4 min; Vd ([3]; male, Sprague Dawley, plasma, N=3, read-out: Vss): 0.999 L/kg; Vd ([3]; male, Sprague Dawley, plasma, N=3, read-out: Vz): 3.04 L/kg; AUC % Extrapolation to C0 ([3]; intravenous 1 mg/kg, N=3): 27.7%; AUC % Extrapolation to Inf ([3]; intravenous 1 mg/kg, N=3): 0.570%; half-life ([3]; intravenous 1 mg/kg, N=3): 65.4 min
2 | CCCN(CCc1c[nH]c2ccc(F)cc12)C(C)C [Example 4, N-(2-(5-fluoro-1H-indol-3-yl)ethyl)-N-isopropylpropan-1-amine] | 6.02 ± 0.07 | 0.468 | 99.5 ± 1.1 | 0.759 | 105.60 ± 0.7 | 9.12 | 74.6 ± 2.0 | 331 | 80.5 ± 2.5 | 2.18 | 0.65 | 13 | 109 | rapidly metabolized | HTR counts over baseline / induction of HTR (C57BL/6J mice [1]; compared to vehicle): significant increase
3 | CCCN(C)CCc1c[nH]c2ccc(F)cc12 [Example 13, N-(2-(5-fluoro-1H-indol-3-yl)ethyl)-N-methylpropan-1-amine] | 6.72 ± 0.12 | 1.58 | 103.0 ± 1.1 | 2.63 | 77.0 ± 1.2 | 1.51 | 115.0 ± 4.0 | 245 | 85.8 ± 2.5 | 4.81 | 1.13 | – | – | – | melting point: 80 to 82 °C
4 | CN(C)CCc1c[nH]c2cccc(OP(=O)(O)O)c12 [Psilocybin] | – | – | – | – | – | – | – | – | – | – | – | – | – | – | HTR ED50 μmol/kg (95% CI) (C57BL/6J mice [4]): 1.40 µmol/kg; HTR ED50 mg/kg (95% CI) (C57BL/6J mice [4]): 0.38 mg/kg
5 | COc1ccc([C@@H]2Sc3ccccc3N(CCN(C)C)C(=O)[C@@H]2OC(C)=O)cc1 [diltiazem, reference compound] | – | – | – | – | – | – | – | – | – | – | – | – | – | – | Clint (μL/min/10^6 cells) (human hepatocytes; [8]): 32 μL/min/10^6 cells; T1/2 (human hepatocytes; [8]): 44 min
6 | C=CCN1CC[C@]23c4c5ccc(O)c4O[C@H]2C(=O)CC[C@@]3(O)[C@H]1C5 [naloxone, reference compound] | – | – | – | – | – | – | – | – | – | – | – | 10 | 138 | – | –

Source: US20240286998A1, “F[…], ANALOGUES THEREOF, AND METHODS USING SAME” (Saint Joseph's University, priority 2021, published 2024)
